{"source": "patent US20070055448A1", "about": "“Primary rat hepatocyte toxicity modeling” (Gene Logic Inc., priority 2003, published 2007)", "key": {"[1]": {"assay": "AY-25329 repeated-dose rat study: serum chemistry and light microscopy", "type": "in vivo, rats", "excerpt": "The present inventors have noted indications of liver and renal effects of AY-25329 by changes in serum chemistry. […] Most of these markers of renal and liver dysfunction remained altered throughout the 14 day study period."}, "[2]": {"details": "0.1, 1, 2, 3, 4 mL/kg ip; 2.5 mL/kg po; peak within 48 hours post dose; cited from earlier work"}, "[3]": {"details": "dogs, after treatment; cited from earlier work"}, "[4]": {"details": "180 reported cases; cited from earlier work"}, "[5]": {"details": "oral doses; cited from earlier work"}, "[6]": {"assay": "Lovastatin rat dosing study: liver tissue examination", "type": "in vivo, rats"}, "[7]": {"details": "human, in vivo; cited from earlier work"}}, "data": [{"smiles": "O=C(CCN1CCN2CCCC2C1)N1c2ccccc2Sc2ccc(Cl)cc21", "note": "(stereo not shown) [AY-25329]", "values": [{"measurement": "histopathology of kidney and liver", "setting": "[1]; 14 days of repeated dosing, 250 mg/kg/day", "result": "nephrosis and alterations in the peripheral lobes of the liver and in the cytoplasm of hepatocytes were evident"}, {"measurement": "light microscopic analysis of the liver", "setting": "[1]; as early as 6 and 24 hours", "result": "increased number of hepatocytic mitotic figures and decreased glycogen content"}, {"measurement": "serum levels of creatinine, BUN, ALT, triglycerides and cholesterol", "setting": "[1]; as early as 6 hours after the first dose, most markers remained altered throughout the 14 day study period", "result": "statistically significant increases"}]}, {"smiles": "ClC(Cl)(Cl)Cl", "note": "[CCl4, carbon tetrachloride]", "values": [{"measurement": "peak increase of ALT and AST levels", "setting": "[2]", "result": "5-10 fold"}]}, {"smiles": "Cl.Nc1nc2c(Cc3ccsc3)c[nH]c2c(=O)[nH]1.O", "note": "[CI-1000, 4H-pyrrolo:3,2-d:pyrimidin-4-one, 2-amino-3,5-dihydro-7-(3-thienylmethyl)-monohydrochloride monohydrate]", "values": [{"measurement": "serum ALT levels", "setting": "[3]", "result": "increased serum ALT levels"}]}, {"smiles": "O=C(O)Cc1ccccc1Nc1c(Cl)cccc1Cl", "note": "[diclofenac]", "values": [{"measurement": "jaundice among symptomatic patients", "setting": "[4]", "result": "75 % of the symptomatic patients"}]}, {"smiles": "CC[C@H](C)C(=O)O[C@H]1C[C@@H](C)C=C2C=C[C@H](C)[C@H](CC[C@@H]3C[C@@H](O)CC(=O)O3)[C@H]21", "note": "[lovastatin]", "values": [{"measurement": "metabolites excreted in the urine", "setting": "[5]", "result": "less than 13%"}, {"measurement": "effects in liver tissue", "setting": "[6]; 9 or 90 mg/kg twice a day, after 6 or after 24 hours", "result": "no effects were noted"}, {"measurement": "liver cell changes", "setting": "[6]; after 14 days of treatment at the higher dosage (90 mg/kg twice a day)", "result": "abnormal vacuolization of the cytoplasm"}]}, {"smiles": "CCCC(CCC)C(=O)O", "note": "[valproate, n-dipropylacetic acid]", "values": [{"measurement": "patients with elevated levels of hepatic enzymes", "setting": "[7]", "result": "about 40 % of patients"}]}]}
